Results: ChEMBL document CHEMBL2034960, “Bryonolic acid transcriptional control of anti-inflammatory and antioxidant genes in macrophages in vitro and in vivo” (J Nat Prod, 2012)

Tested on: RAW264.7
Experiment: Cytotoxicity against mouse RAW264.7 cells at 100 uM after 8 hrs by MTT assay
Assay type: cell-based
Conditions: raw264.7, 8 h

SMILES: C=C(C)[C@@H]1CC[C@]2(C(=O)O)CC[C@]3(C)[C@H](CC[C@@H]4[C@@]5(C)CC[C@H](O)C(C)(C)[C@@H]5CC[C@]43C)[C@@H]12 [BETULINIC ACID]
- Activity: Toxic
